Consider 1 substance from patent US8173428B2, “LNA oligonucleotides and the treatment of cancer” (Santaris Pharma A/S, priority 2004, dated 2012).

Holding throughout (assay type): cell-based, human
One data set concerns Survivin protein. The experiment in a line: Western blot analysis of Survivin protein levels in transfected 15PC3 cells. The following applies: 1, 10 and 25 nM, 12, 24 and 48 hours, compared with mock. The method, then:
Cell culturing and transfections: 15PC3 cells were seeded in 12-well plates and grown for two days at 37° C. (5% CO2) in DMEM supplemented with 10% FBS, Glutamax I and Gentamicin. When the cells were 60-70% confluent, they were transfected in duplicates with different concentrations of oligonucleotides (0.2-25 nM) using Lipofectamine 2000 (10 μg/ml). Transfections were carried out essentially as described by Dean et al. (1994, JBC 269:16416-16424). In short, cells were incubated for 10 min. with Lipofectamine in OptiMEM followed by addition of oligonucleotide to a total volume of 0.5 ml transfection mix per well. After 4 hours, the transfection mix was removed, cells were washed and grown at 37° C. for approximately 20 hours (mRNA analysis) or 12-72 hours (protein analysis) in the appropriate growth medium. Cells were then harvested for protein and RNA analysis.
The in vitro effect of Survivin oligoes on Survivin protein levels in transfected cells was determined by Western Blotting.
Cells were harvested and lysed in 50 mM Tris-HCl pH 6.8, 10% glycerol, 2.5% SDS, 5 mM DTT and 6 M urea supplemented with protease inhibitor cocktail (Roche). Total protein concentrations were measured using a BCA protein assay kit (Pierce). 50 μg total protein was run on a 12% Bis-Tris gels in MOPS buffer and blotted onto a PVDF membranes according to manufacture's instructions (Invitrogen). […]
In general terms: Immunoblotting shows a protein as a band on a membrane.

Data set [1] relates to 15PC3 cells. The data set is described as follows: MTS assay of proliferating viable cells. The method, then:
Culturing of cells: 15PC3 was cultured in DMEM (Sigma) containing 10% fetal bovine serum, Glutamax I and gentamicin at 37° C., 95% humidity and 5% CO2. The cervical carcinoma cell line HeLa were cultured in MEM (Sigma) containing 10% fetal bovine serum, Glutamax I and gentamicin at 37° C., 95% humidity and 5% CO2. When reaching 60-70% confluency, the cells were transfected using Lipofectamine 2000 (5 μg/ml).
Cells were seeded to a density of 10000 cells per well in clear 96 well plate (Scientific Orange no. 1472030100) in DMEM the day prior to transfection. The next day cells were washed once in prewarmed OptiMEM followed by addition of 72 μl OptiMEM containing 5 μg/ml Lipofectamine 2000 (Invitrogen). Cells were incubated for 7 min before adding 18 μl oligonucleotides diluted in OptiMEM. […] After 4 hours of treatment, cells were washed in OptiMEM and 100 μl serum containing DMEM was added. Following oligonucleotide treatment cells were allowed to recover for the period indicated, viable cells were measured by adding 20 μl of the tetrazolium compound [3-(4,5-[…])-5-(3-carboxymethoxyphenyl)-2-(4-sulfophenyl)-2H-tetrazolium, inner salt; MTS] and an electron coupling reagent (phenazine ethosulfate, PES; CellTiter 96® AQueous One Solution Cell Proliferation Assay, Promega). Viable cells were measured at 490 nm and 650 nm in a Powerwave (Biotek Instruments).
The inhibition of growth rate ΔOD (490-650 nm)/h was plotted against the oligonucleotide concentration relative to mock, which was set to 100%. The maximum inhibition of proliferation observed in the MTS assay was 70% (minimum 30%). (Table 5 and FIG. 5)
For orientation: Tetrazolium assays rely on reduction of a dye to a coloured formazan, in cell work by metabolically active cells.

The subject of data set [2] is 15PC3 cells. The experiment in a line: Cell cycle analysis by propidium iodide staining and FACS. The following applies: transfected 15PC3 cells exposed to different concentrations of Taxol. The method, then:
Cell culturing: Human prostate cancer 15PC3 cells (kindly provided by Dr. F Baas, Neurozintuigen Laboratory, AMC, The Netherlands) were seeded to a density of 8×10E5 cells in T75-flasks and grown for two days at 37° C. and 5% CO2 in DMEM supplemented with 10% FBS, Glutamax and Gentamicin. Two days following seeding cells were transfected with 2-10 nM SEQ ID NO. 2 using Lipofectamine at a final conc. of 7.5 μg/ml. Transfections were carried out as described by Dean et al. (1994, JBC 269 p. 16416 16424). In short cells were incubated with Lipofectamine diluted in OptiMEM for 7-10 min followed by the addition of the oligonucleotide to total volume of 8.7 ml per T75 flask. 4 hours following transfection cells were washed in OptiMEM and grown at 37° C. for 12-96 hours in complete growth medium with or without the addition of 2-100 nM Taxol (Sigma Aldrich). Cells were harvested for either mRNA extraction, Caspase 3/7 assay or fixed, stained with PI and analysed by FACS analysis.
Cell culturing and transfections: As in example 13.
Fixation and PI staining: Cells were washed in PBS, harvested and resuspended in 100 μl in ice cold PBS. 900 μl ice cold 70% […] and fixed cells were kept at −20 until use. […]
SEQ ID NO. 2 transfected 15PC3 cells were exposed to different concentrations of Taxol and analysed by Propidium Iodide staining and subsequent FACS analysis (FIG. 7a-c). […]

Like-named read-outs stand apart in the source and are kept apart here. Oligonucleotides are written 5' to 3', each unit as a sugar letter and its base; * is a phosphorothioate linkage, no mark a phosphodiester; rarer units and linkages stand in square brackets, end groups in braces. Plain capitals give the bases only. l = locked nucleic acid (LNA); [5mC] = 5-methylcytosine; d = 2'-deoxy (DNA)

With “5′-^MeCsTs^MeCsAsastscscsastsgsgs^MeCsAsGsc-3′ (l[5mC]*lT*l[5mC]*lA*dA*dT*dC*dC*dA*dT*dG*dG*l[5mC]*lA*lG*dC) [SEQ ID NO. 2]”, the “Survivin protein expression by Western blotting” value in the data set with Survivin protein is on record as “Survivin protein down-regulation”. The “Proliferation (relative number of viable cells)” value in the data set on 15PC3 cells [1] (0.2, 1, 5, 25 and 100 nM, 13-72 hours after transfection, 15PC3 cells) is reported as “dose dependent inhibition of proliferation”. The IC50 was 5 nM with 15PC3 cells [1] (48 hours (Table 7, FIG. 5), read-out: Proliferation IC50 (48 hours)) and 4.9 nM with 15PC3 cells [1] (48 hours, transfected 15PC3 cells (Table 5), read-out: Inhibition of proliferation, MTS assay IC50 (48 hours)). Further, in the data set with 15PC3 cells [2], the “Cells trapped in the G2 or G4 phase, combination with Taxol” value is “increasing amount of cells trapped in the G2 or even G4 phase”.
